In publication PMC4722623, “Novel c-Met inhibitor suppresses the growth of c-Met-addicted gastric cancer cells” (BMC Cancer, 2016) one finds IC50 data, which are given here for 2 molecules.

Test [1] deals with T1, c-Met (Homo sapiens, UniProt P08581).
T1 construct: recombinant kinase domain of c-Met
Kind of test: HTRF c-Met kinase assay; also radiometric kinase panel (Met activity -2 at […]). Particulars: read-out: IC50 (nM) in c-Met enzyme assay. The test is classed as biochemical. A general note: Time-resolved FRET reads energy transfer from a long-lived donor to a nearby acceptor.

Test [2] deals with T1, c-Met. Kind of test: biochemical. Particulars: read-out: IC50 (nM) in c-Met enzyme assay.

T1 sequence (P08581 956-1390 limits assumed): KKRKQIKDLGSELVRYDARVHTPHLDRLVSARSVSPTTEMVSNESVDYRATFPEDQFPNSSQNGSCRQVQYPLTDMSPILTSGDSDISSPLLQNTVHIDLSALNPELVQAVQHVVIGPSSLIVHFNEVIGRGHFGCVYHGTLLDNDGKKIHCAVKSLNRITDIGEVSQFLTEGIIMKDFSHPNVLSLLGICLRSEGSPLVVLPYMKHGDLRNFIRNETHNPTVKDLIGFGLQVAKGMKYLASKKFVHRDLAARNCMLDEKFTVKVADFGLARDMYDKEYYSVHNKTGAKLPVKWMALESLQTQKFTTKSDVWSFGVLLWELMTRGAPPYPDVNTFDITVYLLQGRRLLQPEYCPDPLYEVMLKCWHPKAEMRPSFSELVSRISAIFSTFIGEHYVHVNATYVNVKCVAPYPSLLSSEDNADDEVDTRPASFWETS

On to `FC(F)(F)c1cc(-c2cnc3nnn(CC4CNc5ncccc5O4)c3n2)ccc1OCCN1CCOCC1` (centres unmarked) [KRC-00715], for which the IC50 (as a rule, the midpoint of a concentration-inhibition curve) on c-Met [1] turned out to be 9 nM.

Turning to `Cn1cc(-c2cnc3nnn(CC4CNc5ncccc5O4)c3n2)c2ccccc21` (centres unmarked) [KRC-00509], the half-maximal inhibitory concentration (IC50) at c-Met [2] amounted to 6.3 nM.
